Source: patent US12612424B2, “HPK1 inhibitors and uses thereof” (Regor Pharmaceuticals, Inc., priority 2019, dated 2026)

Tested on: Human Pan T Cell (IL-2 release)
Assay: IL2 released by human pan T cell upon anti-CD3/anti-CD28 stimulation (ELISA)
Format: cell-based
Settings: human pan T cells; for maximal fold induction / EC50 / EC (2-fold response): Homo sapiens, T-cell; for maximal fold induction / EC (2-fold response): 48 h; for maximal fold induction: response of IL-2 over DMSO control, anti-CD3/anti-CD28, 48 hours, ELISA, read-out: IL-2 Max Fold Response; for EC50: IL-2 response, calculated with GraphPad Prism; for EC2x (nM) / EC (2-fold response): concentration of compound that gives 200% IL-2 response (2 folds) over DMSO control
Description: For example, Example 5 describes such a functional assay for determining the effect of an HPK1 inhibitor on IL-2 & IFN-γ release upon stimulation of Pan T cells. The secreted IL-2 & IFN-γ can be measured/quantified by standard ELISA assay. Briefly, pan T cells can be isolated from peripheral blood (PB) mononuclear cells (MNCs), or PBMC, using commercially available kits, such as MACS (Miltenyl Biotec) Pan T isolation kit (Cat. No. 130-096-535). Primary human pan-T cells include CD4 and CD8 T cells as well as some gamma/delta T cell subsets. The pan-T cells can be isolated using the negative immunomagnetic separation technique without the use of columns.
Isolated pan-T cells can be dispensed into 96-well plates at 100,000 cells/well, and stimulated with immobilized anti-CD3 antibody and soluable anti-CD28 antibody, or PMA/Ionomycin as the positive control (or culture media as the negative control). Different concentrations of test compounds can be added to the cells to assess the compound effect on cytokine secretion following TCR-stimulation/CD28 co-stimulation. Stimulated cells are incubated for 2 more days, before the supernatant (containing secreted cytokines by pan-T cells) is collected from each well for ELISA assay and quantitation of IL-2 and IFN-γ.
Biology Example 8 Compound Efficacy Study on IL2 & IFN-γ Released by Human Pan T Cell
This example is an assay method that can be used to determine compound effects on IL2 & IFN-γ release using pan T cells and ELISA assay format.
3. Procedures Procedures for Pan T isolation and Reagent preparation (Day 0): 1. Cell Growth Medium: • RPMI1640: ATCC, Cat #30-2001 • 10% FBS: Gibco, Cat #10099141 • 1% Pen-Strep: Gibco, Cat #15140122 • 1% Non-essential amino: Gibco, Cat #11140050 • Beta-Mercaptoethanol: Gibco, Cat #21985023 2. Pan T Isolation Buffer Preparation:
Prepare a solution containing phosphate-buffered saline (PBS), pH 7.2, 0.5% bovine serum albumin (BSA), and 2 mM EDTA by diluting MACS® BSA Stock Solution (#130-091-376) 20 times with autoMACS® Rinsing Solution. Keep buffer at 4° C. Degas buffer before use, as air bubbles could block the column.
3. Thawing of Frozen PBMC • 1) Pre-heat medium at 37° C. water bath. • 2) Rapidly thaw cells in 37° C. water bath. • 3) Add the pre-warmed medium into 15 mL tube. Transfer cells to the tube. • 4) 300×g centrifuge for 8 min. (centrifuge increase 0, decrease 0). • 5) Wash the PBMC using Rinsing buffer. • 6) Centrifuge PBMC at 300×g for 8 min, wash it twice (centrifuge increase 9, decrease 1). • 7) Resuspend the cells with Pan T cells isolation buffer and count cells number. 4. Pan T Cells Isolation: Cell Staining with Microbead Cocktail • 1) Prepare cells and determine cell number. Filter cells by 70 μm cell strainer. • 2) Resuspend cell pellet in 40 μL of buffer per 10^7 total cells. • 3) Add 10 μL of Pan T Cell Biotin-Antibody Cocktail per 10^7 total cells. • 4) Mix well and incubate for 10 minutes in the refrigerator (ice). • 5) Add 30 μL of buffer per 10^7 total cells. • 6) Add 20 μL of Pan T Cell MicroBead Cocktail per 10^7 total cells. • 7) Mix well and incubate for 15 minutes in the refrigerator (ice). • 8) Proceed to subsequent magnetic cell separation. • Note: a. Work fast, keep cells cold, and use pre-cooled solutions (2-8° C.). b. Volumes for magnetic labeling given are for up to 10′ total cells. When working with fewer cells, use the same volumes as indicated. c. When working with higher cell numbers, scale up all reagent volumes and total volumes accordingly. d. For optimal performance it is important to obtain a single-cell suspension before magnetic labeling. Subsequent Manual Cell Separation: • 1) Place LS Column in the magnetic field of a suitable MACS Separator. For details refer to the respective MACS Column data sheet. • 2) Prepare column by rinsing with 3 mL of buffer. • 3) Apply cell suspension onto the column. Collect flow-through, which represents the enriched T cells. • 4) Wash column with 5 mL of buffer. […]

SMILES | maximal fold induction | EC50 [nM] | EC2x (nM) | EC (2-fold response) [µM]
COc1cc2c(cc1Nc1ncc(Cl)c(N3CCc4ccc(C(F)F)cc43)n1)CN(C)CC2 [Example 91, N-(5-chloro-4-(6-(difluoromethyl)indolin-1-yl)pyrimidin-2-yl)-6-methoxy-2-methyl-1,2,3,4-tetrahydroisoquinolin-7-amine] | < 2 |  |  | 
COc1cc2c(cc1Nc1ncc(Cl)c(N3CCc4c(C(F)F)cccc43)n1)CN(C)CC2 [Example 92, N-(5-chloro-4-(4-(difluoromethyl)indolin-1-yl)pyrimidin-2-yl)-6-methoxy-2-methyl-1,2,3,4-tetrahydroisoquinolin-7-amine] | < 2 |  |  | 
COc1cc2c(cc1Nc1ncc(Cl)c(-n3cc(C4(O)COC4)c4ccccc43)n1)CN(C)CC2 [Example 93] | < 2 |  |  | 
CNC(=O)C1CN(c2nc(Nc3cc4c(cc3OC)CCN(C)C4)ncc2Cl)c2ccccc21 (centres unmarked) [Example 97, 1-(5-Chloro-2-((6-methoxy-2-methyl-1,2,3,4-tetrahydroisoquinolin-7-yl)amino)pyrimidin-4-yl)-N-methylindoline-3-carboxamide] | > 2 | 100 to 500 | ++ (“++”, for higher values than “+++” but less than or equal to 1 μM) | 
COc1cc2c(cc1Nc1ncc(Cl)c(N3CC(C(=O)NS(C)(=O)=O)c4ccccc43)n1)CN(C)CC2 (centres unmarked) [Example 98] | < 2 |  |  | 
COc1cc2c(cc1Nc1ncc(Cl)c(N3CC(C#N)c4ccccc43)n1)CN(C)CC2 (centres unmarked) [Example 99, 1-(5-Chloro-2-((6-methoxy-2-methyl-1,2,3,4-tetrahydroisoquinolin-7-yl)amino)pyrimidin-4-yl)indoline-3-carbonitrile] | < 2 |  |  | 
COc1cc2c(cc1Nc1ncc(Cl)c(N3CC(c4nn[nH]n4)c4ccccc43)n1)CN(C)CC2 (centres unmarked) [Example 100, N-(4-(3-(2H-tetrazol-5-yl)indolin-1-yl)-5-chloropyrimidin-2-yl)-6-methoxy-2-methyl-1,2,3,4-tetrahydroisoquinolin-7-amine] | > 2 | > 1000 | + (“+”, for greater than 1 μM) | 
COc1cc2c(cc1Nc1ncc(Cl)c(N3CC(C(=O)NO)c4ccccc43)n1)CN(C)CC2 (centres unmarked) [Example 101, 1-(5-Chloro-2-((6-methoxy-2-methyl-1,2,3,4-tetrahydroisoquinolin-7-yl)amino)pyrimidin-4-yl)-N-hydroxyindoline-3-carboxamide] | < 2 |  |  | 
COc1cc2c(cc1Nc1ncc(Cl)c(N3CC(C(=O)N(C)O)c4ccccc43)n1)CN(C)CC2 (centres unmarked) [Example 102] | < 2 |  |  | 
CONC(=O)C1CN(c2nc(Nc3cc4c(cc3OC)CCN(C)C4)ncc2Cl)c2ccccc21 (centres unmarked) [Example 103, 1-(5-Chloro-2-((6-methoxy-2-methyl-1,2,3,4-tetrahydroisoquinolin-7-yl)amino)pyrimidin-4-yl)-N-methoxyindoline-3-carboxamide] | < 2 |  |  | 
COc1cc2c(cc1Nc1ncc(Cl)c(N3CC(C(=O)O)c4cc(F)ccc43)n1)CN(C)CC2 (centres unmarked) [Example 104] | > 2 | 100 to 500 |  | 0.1 to 0.5
COc1cc2c(cc1Nc1ncc(Cl)c(N3CC(C(=O)O)c4ccc(F)cc43)n1)CN(C)CC2 (centres unmarked) [Example 105] | > 2 | ≤ 100 |  | 0.1 to 0.5
COc1ccc2c(c1)N(c1nc(Nc3cc4c(cc3OC)CCN(C)C4)ncc1Cl)CC2C(=O)O (centres unmarked) [Example 107, 1-(5-Chloro-2-((6-methoxy-2-methyl-1,2,3,4-tetrahydroisoquinolin-7-yl)amino)pyrimidin-4-yl)-6-methoxyindoline-3-carboxylic acid] | < 2 |  |  | 
COc1cc2c(cc1Nc1ncc(Cl)c(N3CC(C(=O)O)c4c(OC)cccc43)n1)CN(C)CC2 (centres unmarked) [Example 108, 1-(5-Chloro-2-((6-methoxy-2-methyl-1,2,3,4-tetrahydroisoquinolin-7-yl)amino)pyrimidin-4-yl)-4-methoxyindoline-3-carboxylic acid] | < 2 | > 1000 |  | 
COc1cc2c(cc1Nc1ncc(F)c(N3CC(C(=O)O)c4ccccc43)n1)CN(C)CC2 (centres unmarked) [Example 109, 1-(5-Fluoro-2-((6-methoxy-2-methyl-1,2,3,4-tetrahydroisoquinolin-7-yl)amino)pyrimidin-4-yl)indoline-3-carboxylic acid] | > 2 | 100 to 500 | ++ (“++”, for higher values than “+++” but less than or equal to 1 μM) | 
COc1cc2c(cc1Nc1ncc(C#N)c(N3CC(C(=O)O)c4ccccc43)n1)CN(C)CC2 (centres unmarked) [Example 110, 1-(5-Cyano-2-((6-methoxy-2-methyl-1,2,3,4-tetrahydroisoquinolin-7-yl)amino)pyrimidin-4-yl)indoline-3-carboxylic acid] | < 2 |  |  | 
COC(=O)C1CN(c2nc(Nc3cc4c(cc3OC)CCN(C)C4)ncc2C(F)F)c2ccccc21 (centres unmarked) [Example 112] | < 2 |  |  | 
COc1cc2c(cc1Nc1ncc(Cl)c(-n3nc(C(=O)O)c4ccccc43)n1)CN(C)CC2 [Example 113] | < 2 | > 1000 |  | 
COC(=O)C1CN(c2nc(Nc3cc4c(cc3OC)CCN(C)C4)ncc2Cl)c2ccccc21 (centres unmarked) [Example 115, Methyl 1-(5-chloro-2-((6-methoxy-2-methyl-1,2,3,4-tetrahydroisoquinolin-7-yl)amino)pyrimidin-4-yl)indoline-3-carboxylate] | > 2 | 100 to 500 |  | 0.1 to 0.5
COC(=O)C1(C)CN(c2nc(Nc3cc4c(cc3OC)CCN(C)C4)ncc2Cl)c2ccccc21 (centres unmarked) [Example 116] | > 2 | 500 to 1000 | ++ (“++”, for higher values than “+++” but less than or equal to 1 μM) | 
COc1cc2c(cc1Nc1ncc(Cl)c(N3CC(C)(C(N)=O)c4ccccc43)n1)CN(C)CC2 (centres unmarked) [Example 120, 1-(5-Chloro-2-((6-methoxy-2-methyl-1,2,3,4-tetrahydroisoquinolin-7-yl)amino)pyrimidin-4-yl)-3-methylindoline-3-carboxamide] | < 2 |  |  | 
COc1cc2c(cc1Nc1ncc(Cl)c(N3CC(C)(C#N)c4ccccc43)n1)CN(C)CC2 (centres unmarked) [Example 121, 1-(5-Chloro-2-((6-methoxy-2-methyl-1,2,3,4-tetrahydroisoquinolin-7-yl)amino)pyrimidin-4-yl)-3-methylindoline-3-carbonitrile] | < 2 |  |  | 
CNC(=O)C1(C)CN(c2nc(Nc3cc4c(cc3OC)CCN(C)C4)ncc2Cl)c2ccccc21 (centres unmarked) [Example 122] | < 2 |  |  | 
COc1cc2c(cc1Nc1ncc(Cl)c(N3CC(C)(CO)c4ccccc43)n1)CN(C)CC2 (centres unmarked) [Example 123] | < 2 | 100 to 500 |  | 
COc1cc2c(cc1Nc1ncc(Cl)c(N3CC(C)(C(=O)O)c4cc(F)ccc43)n1)CN(C)CC2 (centres unmarked) [Example 125] | > 2 | ≤ 100 |  | ≤ 0.1
COc1cc2c(cc1Nc1ncc(Cl)c(N3CC(C)(C(=O)O)c4ccc(F)cc43)n1)CN(C)CC2 (centres unmarked) [Example 126] | > 2 | ≤ 100 |  | ≤ 0.1
